Measurements as given in ChEMBL document CHEMBL1201862, “PubChem BioAssay data set” (2004).
Active and inactive are the calls of the source.

Legend:
[1] = biological target: G-protein coupled receptor 183 (Homo sapiens, UniProt P32249); assay: SAR confirmation of small molecule antagonists of the EBI2 receptor via a luminescent beta-arrestin assa.; format: functional
[2] = Orthopox viral replication plaque formation Measured in Cell-Based and Microorganism Combination System Using Imaging - 2142-05_Inhibitor_Dose_DryPowder_Activity.; format: functional
HEK293 [3] = assay: inhibition of NOD1-driven NF-kB reporter – cell-based, luminescence, uHTS, primary screen (AID 1578); format: functional; conditions: Homo sapiens
HEK293 [4] = assay: cells; format: functional, cell-based; conditions: Homo sapiens
HEK293 [5] = assay: cells; format: functional, cell-based; conditions: Homo sapiens; remark: listed apart in the source
HEK293 [6] = assay: NOD2 signaling inhibitors in MDP-stimulated cells, cell-based, uHTS, luminescence (AID 2001); format: functional; conditions: Homo sapiens
Tumor necrosis factor = Tumor necrosis factor (Homo sapiens, UniProt P01375); assay: analog potency on TNFa NF-kB signaling – cell-based, revised, SAR follow-up (AID 2337); format: functional
[7] = biological target: T1, Nucleotide-binding oligomerization domain-containing protein 1 (Homo sapiens, UniProt Q9Y239); assay: blockers of NOD1 pathway activity – revised, SAR follow-up (AID 2333); format: functional
T1 sequence (Q9Y239 whole entry): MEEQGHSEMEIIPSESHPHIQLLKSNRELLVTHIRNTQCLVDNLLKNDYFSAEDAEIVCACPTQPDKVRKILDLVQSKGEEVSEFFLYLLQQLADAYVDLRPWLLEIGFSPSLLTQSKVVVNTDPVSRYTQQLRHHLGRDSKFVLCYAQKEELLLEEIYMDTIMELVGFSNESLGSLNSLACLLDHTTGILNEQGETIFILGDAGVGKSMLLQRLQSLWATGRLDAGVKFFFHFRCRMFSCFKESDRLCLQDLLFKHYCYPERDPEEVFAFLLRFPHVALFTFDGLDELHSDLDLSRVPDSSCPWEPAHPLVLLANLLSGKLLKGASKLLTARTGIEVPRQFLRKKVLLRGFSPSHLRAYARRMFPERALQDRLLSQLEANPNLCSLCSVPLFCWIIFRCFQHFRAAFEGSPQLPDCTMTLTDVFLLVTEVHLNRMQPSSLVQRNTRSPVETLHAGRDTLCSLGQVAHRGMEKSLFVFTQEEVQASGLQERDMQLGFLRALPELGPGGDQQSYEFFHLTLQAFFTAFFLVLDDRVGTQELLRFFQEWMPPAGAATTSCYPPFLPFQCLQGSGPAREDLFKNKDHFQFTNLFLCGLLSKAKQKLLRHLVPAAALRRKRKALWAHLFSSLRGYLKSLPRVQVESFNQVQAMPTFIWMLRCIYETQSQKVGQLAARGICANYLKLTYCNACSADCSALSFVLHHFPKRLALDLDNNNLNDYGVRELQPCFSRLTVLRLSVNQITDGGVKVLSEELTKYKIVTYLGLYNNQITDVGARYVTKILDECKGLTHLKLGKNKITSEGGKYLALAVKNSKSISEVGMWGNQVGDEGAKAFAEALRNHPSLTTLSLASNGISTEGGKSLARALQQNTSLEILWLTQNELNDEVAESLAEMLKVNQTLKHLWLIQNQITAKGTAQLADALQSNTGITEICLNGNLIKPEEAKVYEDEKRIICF

ELAV-like protein 1 = ELAV-like protein 1 (Homo sapiens, UniProt Q15717); assay: Identify HuR specific inhibitors.; format: functional
HEK293 [8] = assay: cells; conditions: Homo sapiens
[9] = Late-stage results from the probe development effort to identify antagonists of arginine vasopressin receptor 1a (AVPR1a): fluorescence-based cell-based dose response AVPR1a inhibition assay.; format: functional
Vasopressin V1b receptor = Vasopressin V1b receptor (Homo sapiens, UniProt P47901); assay: Late-stage results from the probe development effort to identify antagonists of arginine vasopressin receptor 1a (AVPR1a): fluorescence-based cell-based dose response AVPR1b inhibition counterscreen assay.; format: functional
Vasopressin V2 receptor = Vasopressin V2 receptor (Homo sapiens, UniProt P30518); assay: Late-stage results from the probe development effort to identify antagonists of arginine vasopressin receptor 1a (AVPR1a): fluorescence-based cell-based dose response AVPR2 inhibition counterscreen assay.; format: functional
[10] = Late-stage results from the probe development effort to identify antagonists of arginine vasopressin receptor 1a (AVPR1a): fluorescence-based cell-based dose response OXTR inhibition counterscreen assay.; format: functional
[11] = Luminescence-based cell-based high throughput dose response assay to identify activators of the DAF-12 from the parasite S. stercoralis (ssDAF-12).; format: functional
[12] = biological target: T2, Oxysterols receptor LXR-beta (Homo sapiens, UniProt P55055); assay: LXR agonists, Gal4 luciferase reporter, dose response, counter-screen for ssDAF-12 agonist project, cell-based, luminescence, HEK293, S. stercoralis campaign (AID 720737); format: functional; conditions: read-out: IC50 (the source's name)
T2 sequence (P55055 whole entry): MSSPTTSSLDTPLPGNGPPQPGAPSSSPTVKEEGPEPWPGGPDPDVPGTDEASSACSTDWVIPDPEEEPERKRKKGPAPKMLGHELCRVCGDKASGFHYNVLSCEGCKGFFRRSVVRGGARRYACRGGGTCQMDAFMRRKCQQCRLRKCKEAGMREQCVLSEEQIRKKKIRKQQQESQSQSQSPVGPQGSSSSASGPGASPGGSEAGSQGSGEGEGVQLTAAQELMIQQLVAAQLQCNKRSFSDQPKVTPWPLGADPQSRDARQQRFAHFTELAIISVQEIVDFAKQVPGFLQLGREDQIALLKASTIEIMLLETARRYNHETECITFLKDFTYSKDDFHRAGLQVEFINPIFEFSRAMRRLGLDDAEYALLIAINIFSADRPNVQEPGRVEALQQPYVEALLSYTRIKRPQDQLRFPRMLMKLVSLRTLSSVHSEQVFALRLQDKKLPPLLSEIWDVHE

Kallikrein-7 = Kallikrein-7 (Homo sapiens, UniProt P49862); assay: Fluorescence Intensity-based biochemical primary high throughput dose response assay to identify activators of kallikrein-7 (K7) zymogen.
Caspase-3 = biological target: T3, Caspase-3 (Homo sapiens, UniProt P42574); format: functional;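 further: Dose-response selectivity test against caspase-3 for candidate inhibitors of sentrin-specific proteases (SENPs)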
T3 sequence (P42574 whole entry): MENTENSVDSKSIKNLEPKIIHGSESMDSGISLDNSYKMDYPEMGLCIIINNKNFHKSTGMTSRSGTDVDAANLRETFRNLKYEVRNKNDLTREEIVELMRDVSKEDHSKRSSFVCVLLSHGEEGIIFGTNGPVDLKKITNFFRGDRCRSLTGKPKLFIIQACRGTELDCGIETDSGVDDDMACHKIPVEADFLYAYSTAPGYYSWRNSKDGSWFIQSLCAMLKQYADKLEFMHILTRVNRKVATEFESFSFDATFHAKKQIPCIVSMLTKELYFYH

[13] = biological target: T4, Sentrin-specific protease 7 (Homo sapiens, UniProt Q9BQF6); format: functional;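 further: Luminescence-based dose-response confirmation of ultra-high-throughput screening hits, measuring inhibition of SENP7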
T4 sequence (Q9BQF6 whole entry): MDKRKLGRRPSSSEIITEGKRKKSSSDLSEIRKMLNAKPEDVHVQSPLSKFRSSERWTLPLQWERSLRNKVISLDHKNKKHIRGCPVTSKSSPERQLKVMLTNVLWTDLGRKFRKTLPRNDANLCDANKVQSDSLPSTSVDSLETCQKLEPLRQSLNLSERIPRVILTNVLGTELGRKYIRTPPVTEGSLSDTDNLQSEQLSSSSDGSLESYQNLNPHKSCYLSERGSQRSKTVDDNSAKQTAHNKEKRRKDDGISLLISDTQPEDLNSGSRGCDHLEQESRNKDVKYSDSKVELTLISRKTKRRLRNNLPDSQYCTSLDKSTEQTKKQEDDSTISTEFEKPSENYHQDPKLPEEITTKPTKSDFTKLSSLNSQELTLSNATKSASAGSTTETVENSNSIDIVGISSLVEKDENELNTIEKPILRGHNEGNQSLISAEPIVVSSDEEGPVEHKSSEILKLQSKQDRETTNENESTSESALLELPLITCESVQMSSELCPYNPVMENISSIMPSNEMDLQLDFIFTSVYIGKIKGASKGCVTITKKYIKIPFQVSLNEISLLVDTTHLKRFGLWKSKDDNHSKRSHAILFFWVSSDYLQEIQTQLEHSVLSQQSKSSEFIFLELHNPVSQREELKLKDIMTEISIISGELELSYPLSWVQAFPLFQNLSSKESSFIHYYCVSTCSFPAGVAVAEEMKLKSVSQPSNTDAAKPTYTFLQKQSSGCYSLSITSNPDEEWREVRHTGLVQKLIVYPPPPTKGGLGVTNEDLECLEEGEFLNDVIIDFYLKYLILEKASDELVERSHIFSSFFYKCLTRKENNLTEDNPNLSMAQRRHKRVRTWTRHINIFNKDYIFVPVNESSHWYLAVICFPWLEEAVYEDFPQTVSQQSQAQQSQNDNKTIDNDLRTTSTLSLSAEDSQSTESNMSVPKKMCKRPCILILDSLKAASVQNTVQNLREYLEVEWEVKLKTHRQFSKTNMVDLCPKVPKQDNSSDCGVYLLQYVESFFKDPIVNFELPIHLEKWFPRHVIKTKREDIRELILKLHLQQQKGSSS

[14] = biological target: T5, Sentrin-specific protease 6 (Homo sapiens, UniProt Q9GZR1); format: functional;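 further: Luminescence-based dose-response confirmatory assay of SENP6 inhibition, following up an ultra-high-throughput screen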
T5 sequence (Q9GZR1 whole entry): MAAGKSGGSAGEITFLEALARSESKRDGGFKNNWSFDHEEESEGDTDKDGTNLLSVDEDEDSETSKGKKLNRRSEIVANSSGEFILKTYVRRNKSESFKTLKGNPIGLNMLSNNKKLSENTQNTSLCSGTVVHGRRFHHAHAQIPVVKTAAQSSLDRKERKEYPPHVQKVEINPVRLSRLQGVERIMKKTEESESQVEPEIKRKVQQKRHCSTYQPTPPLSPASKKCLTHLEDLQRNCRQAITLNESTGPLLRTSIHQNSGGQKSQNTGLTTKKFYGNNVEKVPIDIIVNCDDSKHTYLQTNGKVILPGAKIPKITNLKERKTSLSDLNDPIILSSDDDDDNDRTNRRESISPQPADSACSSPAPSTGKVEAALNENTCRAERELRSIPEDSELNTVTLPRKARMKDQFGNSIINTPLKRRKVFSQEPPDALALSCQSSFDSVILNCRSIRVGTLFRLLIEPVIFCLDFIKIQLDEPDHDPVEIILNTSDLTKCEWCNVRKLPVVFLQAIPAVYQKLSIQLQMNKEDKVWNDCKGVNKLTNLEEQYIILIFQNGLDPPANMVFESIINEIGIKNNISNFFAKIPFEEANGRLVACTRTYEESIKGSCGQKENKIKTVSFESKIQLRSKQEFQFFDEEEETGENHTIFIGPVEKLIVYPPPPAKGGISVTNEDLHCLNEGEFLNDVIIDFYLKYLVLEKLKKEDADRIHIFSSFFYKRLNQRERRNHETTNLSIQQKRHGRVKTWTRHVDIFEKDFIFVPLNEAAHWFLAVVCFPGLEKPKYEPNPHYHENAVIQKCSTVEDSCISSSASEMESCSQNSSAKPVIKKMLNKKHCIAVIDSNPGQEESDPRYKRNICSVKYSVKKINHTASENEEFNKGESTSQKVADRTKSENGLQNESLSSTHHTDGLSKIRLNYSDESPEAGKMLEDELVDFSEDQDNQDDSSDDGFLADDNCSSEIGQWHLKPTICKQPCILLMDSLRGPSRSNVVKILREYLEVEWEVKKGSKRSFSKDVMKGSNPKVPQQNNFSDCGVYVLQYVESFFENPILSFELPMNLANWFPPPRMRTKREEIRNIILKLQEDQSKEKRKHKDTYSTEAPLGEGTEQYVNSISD

[15] = biological target: T6, Sentrin-specific protease 8 (Homo sapiens, UniProt Q96LD8); format: functional;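 further: luminescence read-out of SENP8 inhibition, dose-response confirmation following an ultra-high-throughput screen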
T6 sequence (Q96LD8 whole entry): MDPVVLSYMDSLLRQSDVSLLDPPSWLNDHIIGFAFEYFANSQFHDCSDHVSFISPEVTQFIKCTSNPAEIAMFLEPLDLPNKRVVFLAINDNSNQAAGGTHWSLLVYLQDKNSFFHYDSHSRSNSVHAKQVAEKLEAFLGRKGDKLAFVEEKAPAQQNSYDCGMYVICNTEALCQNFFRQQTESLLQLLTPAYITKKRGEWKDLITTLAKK

[16] = biological target: Dual specificity tyrosine-phosphorylation-regulated kinase 1A (Rattus norvegicus, UniProt Q63470); format: biochemical, Homo sapiens
Caspase-6 = Caspase-6 (Homo sapiens, UniProt P55212); assay: inhibition of CASP6 peptide cleavage – biochemical, VEID-R110 fluorescence, cherry-pick, dose response (AID 720632)
[17] = reduced cellular PGC1a acetyl-lysine signal – cell-based, cherry-picked samples, dose response (AID 720514); format: functional;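 further: potency may reflect raised or lowered acetylation signal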

Chain of Tumor necrosis factor (P01375 whole entry, the tested form may be a part): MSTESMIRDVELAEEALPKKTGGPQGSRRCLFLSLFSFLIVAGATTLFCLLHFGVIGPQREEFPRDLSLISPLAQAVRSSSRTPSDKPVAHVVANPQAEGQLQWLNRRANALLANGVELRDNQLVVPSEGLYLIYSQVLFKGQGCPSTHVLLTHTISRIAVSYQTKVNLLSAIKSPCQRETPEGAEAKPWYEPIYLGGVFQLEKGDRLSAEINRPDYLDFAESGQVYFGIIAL
Chain of Caspase-6 (P55212 24-179 limits assumed): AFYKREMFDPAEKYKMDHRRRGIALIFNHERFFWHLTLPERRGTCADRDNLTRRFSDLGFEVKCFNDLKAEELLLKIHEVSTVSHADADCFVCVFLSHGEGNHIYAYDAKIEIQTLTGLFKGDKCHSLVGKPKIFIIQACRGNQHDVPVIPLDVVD
Chain of Caspase-6 (P55212 194-293 limits assumed): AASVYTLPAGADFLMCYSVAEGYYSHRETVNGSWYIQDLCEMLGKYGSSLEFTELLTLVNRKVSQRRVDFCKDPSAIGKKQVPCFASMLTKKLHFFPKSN
Chain of Vasopressin V2 receptor (P30518 whole entry): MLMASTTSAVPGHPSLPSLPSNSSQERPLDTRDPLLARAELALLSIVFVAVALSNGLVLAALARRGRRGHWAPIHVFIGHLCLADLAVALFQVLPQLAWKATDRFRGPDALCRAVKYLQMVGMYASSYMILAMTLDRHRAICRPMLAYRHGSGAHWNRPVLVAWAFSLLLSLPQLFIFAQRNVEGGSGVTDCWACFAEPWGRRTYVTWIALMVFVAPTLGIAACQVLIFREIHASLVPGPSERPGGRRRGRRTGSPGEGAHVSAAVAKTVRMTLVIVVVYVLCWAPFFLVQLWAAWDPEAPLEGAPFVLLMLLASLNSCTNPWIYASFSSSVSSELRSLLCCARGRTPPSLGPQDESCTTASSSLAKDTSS
Chain of G-protein coupled receptor 183 (P32249 whole entry): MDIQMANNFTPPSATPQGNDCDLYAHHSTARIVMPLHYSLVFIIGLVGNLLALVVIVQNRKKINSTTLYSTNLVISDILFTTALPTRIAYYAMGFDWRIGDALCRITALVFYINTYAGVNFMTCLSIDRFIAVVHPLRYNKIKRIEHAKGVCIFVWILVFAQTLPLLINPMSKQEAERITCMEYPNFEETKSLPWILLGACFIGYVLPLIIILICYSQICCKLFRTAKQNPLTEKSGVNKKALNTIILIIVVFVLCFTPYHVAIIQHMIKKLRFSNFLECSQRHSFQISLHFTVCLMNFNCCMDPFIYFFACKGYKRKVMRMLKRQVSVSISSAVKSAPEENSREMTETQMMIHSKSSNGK
Chain of Kallikrein-7 (P49862 whole entry): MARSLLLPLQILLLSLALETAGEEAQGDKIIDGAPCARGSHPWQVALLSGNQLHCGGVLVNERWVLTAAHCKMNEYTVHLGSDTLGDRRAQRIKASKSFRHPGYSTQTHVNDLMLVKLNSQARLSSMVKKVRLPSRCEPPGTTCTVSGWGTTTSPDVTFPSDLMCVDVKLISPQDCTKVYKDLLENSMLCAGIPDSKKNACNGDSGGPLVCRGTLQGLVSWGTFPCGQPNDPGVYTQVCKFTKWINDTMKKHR
Chain of Vasopressin V1b receptor (P47901 whole entry): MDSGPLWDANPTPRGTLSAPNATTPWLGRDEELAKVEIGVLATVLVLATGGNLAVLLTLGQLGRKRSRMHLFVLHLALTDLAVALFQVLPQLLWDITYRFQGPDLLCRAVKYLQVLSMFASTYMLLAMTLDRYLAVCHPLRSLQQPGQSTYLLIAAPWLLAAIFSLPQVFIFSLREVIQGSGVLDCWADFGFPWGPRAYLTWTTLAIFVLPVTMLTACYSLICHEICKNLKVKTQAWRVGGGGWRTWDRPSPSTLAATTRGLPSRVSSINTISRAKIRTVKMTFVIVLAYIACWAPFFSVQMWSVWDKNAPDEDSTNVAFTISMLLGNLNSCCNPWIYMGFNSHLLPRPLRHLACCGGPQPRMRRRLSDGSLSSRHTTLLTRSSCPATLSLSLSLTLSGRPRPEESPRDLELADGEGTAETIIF
Chain of ELAV-like protein 1 (Q15717 whole entry): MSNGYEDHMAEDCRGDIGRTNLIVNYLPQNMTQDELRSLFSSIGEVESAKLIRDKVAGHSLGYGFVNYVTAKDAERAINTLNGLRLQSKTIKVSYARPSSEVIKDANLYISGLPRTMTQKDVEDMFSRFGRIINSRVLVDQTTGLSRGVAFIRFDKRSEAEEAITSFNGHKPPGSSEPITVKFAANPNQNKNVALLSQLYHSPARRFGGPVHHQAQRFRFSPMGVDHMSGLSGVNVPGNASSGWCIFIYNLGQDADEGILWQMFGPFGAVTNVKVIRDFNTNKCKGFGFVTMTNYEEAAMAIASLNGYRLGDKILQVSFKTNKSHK

O=C(/C=C/c1ccc(Br)cc1)N1CCN(C(=O)C2CCCC2)CC1
IC50 [1]: 0.00441 µM (active)

C[C@@H](O)C#Cc1ccc2c(c1)O[C@@H](CN(C)S(=O)(=O)c1ccc(-c3ccccc3)cc1)[C@@H](C)CN([C@@H](C)CO)S2(=O)=O
AC50 [2]: 12.3 µM (active)

O=C(Nc1cccc([N+](=O)[O-])c1)c1ccc2ccccc2c1O
EC50 (HEK293 [3]): 3.05 µM (active)
IC50 (HEK293 [4]): 6.83 µM (active)
IC50 (HEK293 [5]): > 20 µM (inactive)
IC50 (HEK293 [6]): 6.08 µM (inactive)
IC50 (Tumor necrosis factor): 4.72 µM (active)
IC50 [7]: 4.36 µM (active)
IC50 (ELAV-like protein 1): 97.4 µM (inactive)
IC50 (HEK293 [8]): 13.2 µM (active)

COc1ccc(N(CC2CC2)C(=O)N2CCN(c3ccccc3C)CC2)cc1
IC50 [9]: 0.0038 µM (active)
IC50 (Vasopressin V1b receptor): 5.8 µM (active)
IC50 (Vasopressin V2 receptor): 3.51 µM (active)
IC50 [10]: 0.051 µM (active)

COc1ccc(C(=O)c2ccccc2)cc1
IC50 [11]: > 67.6 µM (inactive)
EC50 [12]: > 67.6 µM (inactive)

COc1cc2c(cc1OC)C1CCN3C(=O)CCC3N1CC2 (centres undefined)
EC50 (Kallikrein-7): 21.1 µM (inactive)

COc1cc2c(C#N)c(N3CCCC3)nc(N)c2c(N)n1
IC50 (Caspase-3): 7.35 µM (active)
IC50 [13]: 2.67 µM (active)
IC50 [14]: 2.24 µM (active)
IC50 [15]: 2.64 µM (active)
AC50 [16]: 5.72 µM (active)
AC50 (Caspase-6): 12 µM (active)

N#Cc1c(N)c(C(=O)c2ccccc2)n2ccccc12
AC50 [17]: 25.7 µM (active)
